Experimental data published in paper PMC12069340 (Frontiers in Cellular and Infection Microbiology, 2025).
Where a name gives a salt, the structure may show the parent alone. Read-outs that look alike come from different tables or passages of the source.

Columns and labels:
[1] = tested on: A/PuertoRico/8/1934 (H1N1) virus; assay: microbe, parasite or virus in culture; assay type: cell-based, influenza A virus
[2] = in vitro; details: human, Relative Viability (%)
[3] = Influenza A virus, H1N1, U-937, 48 h; read-out: NA Inhibition (%)
[4] = Influenza A virus, H1N1, U-937, 48 h, read-out: NA Inhibition (%)

SMILES	inhibition at 20 µM [1, 3]	viability at 20 µM [2]	inhibition at 20 µM [1, 4]	NA Inhibition (%) ([1]; 20 µM)
C[C@@H]1C(=O)O[C@H]2C[C@@]34[C@H]5C[C@@H](C(C)(C)C)[C@]36[C@@H](OC(=O)[C@@H]6O)O[C@@]4(C(=O)O5)[C@]21O [Ginkgolide A]	23.3%	109%	–	–
OC[C@@H](O)CN1CCN(c2ccccc2)CC1 [Levodropropizine]	35.7%	104%	–	–
CC(C)(C)NC[C@H](O)COc1nsnc1N1CCOCC1 [Timolol Maleate]	–	91.2%	33.2%	–
O=C1c2cccc3c2[C@H](CCC3)CN1[C@@H]1CN2CCC1CC2 [Palonosetron HCl]	-5.5%	102%	–	–
CCN1CCC[C@H]1CNC(=O)c1cc(S(N)(=O)=O)ccc1OC [Levosulpiride]	2.8%	104%	–	–
CC(C)COc1ccc(CNC(=O)N(Cc2ccc(F)cc2)C2CCN(C)CC2)cc1 [Pimavanserin]	18.1%	113%	–	–
CC(C)(C)NCC(O)c1cc(O)cc(O)c1 (stereo not shown) [Terbutaline Sulfate]	–	101%	39.1%	–
OCCOCCN1CCN(C2=Nc3ccccc3Sc3ccccc32)CC1 [Quetiapine Fumarate]	–	104%	-29.1%	–
COc1cc2nc(N3CCN(C(=O)c4ccco4)CC3)nc(N)c2cc1OC [Prazosin HCl]	-45.6%	76.9%	–	–
CC(=O)OCC[N+](C)(C)C [Acetylcholine Chloride]	-5.4%	104%	–	–
CNS(=O)(=O)CCc1ccc2[nH]cc(C3CCN(C)CC3)c2c1 [Naratriptan]	5.8%	102%	–	–
NC[C@H](CC(=O)O)c1ccc(Cl)cc1 [(R)-baclofen]	46.4%	112%	–	–
CNCC(O)c1ccc(O)cc1 (stereo not shown) [Synephrine]	–	90.5%	12.3%	–
COc1ccc2cccc(CCNC(C)=O)c2c1 [Agomelatine]	18.4%	89.1%	–	–
OC(CCCN1CCCCC1)(c1ccccc1)c1ccccc1 [Diphenidol HCl]	32.3%	125%	–	–
CCN(Cc1ccc(Cl)nc1)/C(=C/[N+](=O)[O-])NC [Nitenpyram]	-32.4%	110%	–	–
CN(C)C(=O)Oc1ccc[n+](C)c1 [Pyridostigmine Bromide]	-34.1%	88.2%	–	–
Clc1ccc2nsnc2c1NC1=NCCN1 [Tizanidine HCl]	–	78.9%	-28.3%	–
COc1ccccc1N1CCN(CC(O)COc2cccc3ccccc23)CC1 (stereo not shown) [Naftopidil]	–	102%	13.4%	–
NCCc1c[nH]cn1 [Histamine Phosphate]	–	98.9%	–	-2.9
Cc1cccc(Cc2c[nH]cn2)c1C [Detomidine HCl]	–	109%	31.2%	–
CN(C)C(=O)Oc1cccc([N+](C)(C)C)c1 [Neostigmine Bromide]	2%	114%	–	–
O=C1CC[C@@]2(O)[C@H]3Cc4ccc(O)c5c4[C@@]2(CCN3CC2CC2)[C@H]1O5 [Naltrexone HCl]	–	107%	10.1%	–

SMILES	inhibition at 20 µM [1, 3]	viability at 20 µM [2]	inhibition at 20 µM [1, 4]	NA Inhibition (%) ([1]; 20 µM)
NC12CC3CC(CC(C3)C1)C2 [Amantadine HCl]	69.2%	110%	–	–
Clc1cccc(Cl)c1N=C1NCCN1 [Clonidine HCl]	–	99.2%	-24.1%	–
C=CC[N+]1([C@H]2C[C@H]3[C@@H]4CC[C@H]5C[C@H](O)[C@@H](N6CCOCC6)C[C@]5(C)[C@H]4CC[C@]3(C)[C@H]2OC(C)=O)CCCC1 [Rocuronium Bromide]	16.7%	106%	–	–
CNC(=C[N+](=O)[O-])NCCSCc1ccc(CN(C)C)o1 [Ranitidine]	-11.1%	109%	–	–
Nc1nc(CC(=O)Nc2ccc(CCNC[C@H](O)c3ccccc3)cc2)cs1 [Mirabegron]	–	102%	-9.6%	–
CCC1(c2cnc[nH]2)Cc2ccccc2C1 [Atipamezole]	–	118%	38.2%	–
C[C@](N)(Cc1ccc(O)c(O)c1)C(=O)O [Methyldopa]	–	104%	-13.4%	–
CN(C)CCc1c[nH]c2ccc(Cn3cncn3)cc12 [Rizatriptan Benzoate]	7.7%	106%	–	–
CC(C)NCC(O)COc1ccc(CCOCC2CC2)cc1 (stereo not shown) [Betaxolol]	–	115%	6.7%	–
CN(C)CCN(Cc1ccccc1)c1ccccn1 [Tripelennamine HCl]	-0.2%	105%	–	–
C[N+]1(C)CCC(=C(c2ccccc2)c2ccccc2)CC1 [Diphemanil Methylsulfate]	-0.6%	98.2%	–	–
Cc1cccc([C@H](C)c2cnc[nH]2)c1C [Dexmedetomidine HCl (Precedex), Dexmedetomidine HCl]	–	120%	–	-18.5%
COc1ccc(C[C@@H]2c3cc(OC)c(OC)cc3CC[N@+]2(C)CCC(=O)OCCCCCOC(=O)CC[N@@+]2(C)CCc3cc(OC)c(OC)cc3[C@H]2Cc2ccc(OC)c(OC)c2)cc1OC [Cisatracurium Besylate]	–	106%	27.9%	–
Cc1ccsc1C(=CCCN1CCC[C@@H](C(=O)O)C1)c1sccc1C [Tiagabine]	14.2%	95.7%	–	–
CCCC(=O)Nc1ccc(OCC(O)CNC(C)C)c(C(C)=O)c1 (stereo not shown) [Acebutolol HCl]	–	106%	-13.9%	–
COc1ccc(C(CN(C)C)C2(O)CCCCC2)cc1 (stereo not shown) [Venlafaxine]	-1.3%	93.2%	–	–
CN[C@H](CC(=O)O)C(=O)O [NMDA (N-Methyl-D-aspartic acid), N-Methyl-D-aspartic acid]	–	113%	-15.5%	–
O=C1c2c(O)cc(O)cc2O[C@H](c2cc(O)c(O)c(O)c2)[C@H]1O [Dihydromyricetin]	9.3%	95.3%	–	–
CC(CCc1ccccc1)NCC(O)c1ccc(O)c(C(N)=O)c1 (stereo not shown) [Labetalol HCl]	–	101%	-17.2%	–
CN1CCC(=C2c3ccccc3CCn3c(C=O)cnc32)CC1 [Alcaftadine]	-0.9%	188%	–	–
O=C(O[C@H]1CN2CCC1CC2)N1CCc2ccccc2[C@@H]1c1ccccc1 [Solifenacin succinate]	22.6%	102%	–	–
CCCN[C@H]1CCc2nc(N)sc2C1 [Pramipexole dihydrochloride monohydrate]	–	100%	–	2.6
Cc1nc2n(c(=O)c1CCN1CCC(c3noc4cc(F)ccc34)CC1)CCCC2O (stereo not shown) [Paliperidone]	9.3%	110%	–	–

SMILES	inhibition at 20 µM [1, 3]	viability at 20 µM [2]	inhibition at 20 µM [1, 4]	NA Inhibition (%) ([1]; 20 µM)
CN1CCN2c3ccccc3Cc3ccccc3C2C1 (stereo not shown) [Mianserin HCl]	26.3%	91.9%	–	–
CC(C[N+](C)(C)C)OC(N)=O (stereo not shown) [Bethanechol chloride]	2.2%	103%	–	–
N#Cc1ccc2[nH]cc(CCCCN3CCN(c4ccc5oc(C(N)=O)cc5c4)CC3)c2c1 [Vilazodone HCl]	-49.6%	98.9%	–	–
O=c1ccc2ccc(OCCCCN3CCN(c4cccc5sccc45)CC3)cc2[nH]1 [Brexpiprazole]	54%	97.2%	–	–
Cc1c(-c2ccccc2)oc2c(C(=O)OCCN3CCCCC3)cccc2c1=O [Flavoxate HCl]	8.2%	118%	–	–
C[N+](C)(C)CCCCCC[N+](C)(C)C [Hexamethonium Bromide]	-10.2%	104%	–	–
c1ccc(CC2=NCCN2)cc1 [Tolazoline HCl]	14.5%	86%	–	–
CC(C)C(=O)Oc1ccc(CO)cc1[C@H](CCN(C(C)C)C(C)C)c1ccccc1 [Fesoterodine Fumarate]	-27.7%	114%	–	–
CCC(COC(=O)c1cc(OC)c(OC)c(OC)c1)(c1ccccc1)N(C)C (stereo not shown) [Trimebutine]	–	108%	43.7%	–
N#Cc1ccccc1-c1cc(-c2ccccn2)cn(-c2ccccc2)c1=O [Perampanel]	-30.9%	98.8%	–	–
COc1cc2nc(N(C)CCCNC(=O)C3CCCO3)nc(N)c2cc1OC (stereo not shown) [Alfuzosin HCl]	–	110%	-12.3%	–
COc1cc2c(cc1OC)[C@@H]1Cc3ccc(OC)c(OC)c3CN1CC2 [Rotundine]	17.4%	112%	–	–
CN1CCC(=C2c3ccccc3CC(=O)c3sccc32)CC1 [Ketotifen Fumarate]	-4.7%	108%	–	–
N=C(N)NC(=O)Cc1c(Cl)cccc1Cl [Guanfacine Hydrochloride]	11%	102%	–	–
CN(C)C(=O)C(CCN1CCC(O)(c2ccc(Cl)cc2)CC1)(c1ccccc1)c1ccccc1 [Loperamide HCl]	–	116%	23.2%	–
C[C@H](Cc1cc2c(c(C(N)=O)c1)N(CCCO)CC2)NCCOc1ccccc1OCC(F)(F)F [Silodosin]	–	115%	-41.7%	–
Cc1cccc(C)c1NC(=O)CN1CCCC1=O [Nefiracetam]	6%	105%	–	–
CCN(C)C(=O)Oc1cccc([C@H](C)N(C)C)c1 [Rivastigmine Tartrate]	-0.2%	116%	–	–
CN(C)CC(c1ccc(O)cc1)C1(O)CCCCC1 (stereo not shown) [Desvenlafaxine Succinate]	11%	98.8%	–	–
CCOc1cc(N)c(Cl)cc1C(=O)NCC1CN(Cc2ccc(F)cc2)CCO1 (stereo not shown) [Mosapride Citrate]	32.4%	112%	–	–
CN1CCC[C@@H]1CCO[C@](C)(c1ccccc1)c1ccc(Cl)cc1 [Clemastine Fumarate]	–	88.5%	–	–
